From ChEMBL document CHEMBL5576112, “Synthesis, in silico, in vitro evaluation of furanyl- and thiophenyl-3-phenyl-1H-indole-2-carbohydrazide derivatives as tubulin inhibitors and anticancer agents” (RSC Med Chem, 2024)
Calls of active or inactive are those of the source. The calls are words filed in the database; no cut-off is given here.

Legend:
NCI-H522 [1] = assay: Growth inhibition of human NCI-H522 cells measured after 48 hrs by sulforhodamine B assay; format: functional; settings: for CC50: read-out: LC50 (the source's name)
SF-539 [2] = assay: Growth inhibition of human SF-539 cells measured after 48 hrs by sulforhodamine B assay; format: functional; settings: for CC50: read-out: LC50 (the source's name)
NCI/ADR-RES [3] = assay: Growth inhibition of human NCI-ADR-RES cells measured after 48 hrs by sulforhodamine B assay; format: functional; settings: for CC50: read-out: LC50 (the source's name)
NCI-H522 [4] = assay: Growth inhibition of human NCI-H522 cells at 10 uM measured after 48 hrs by sulforhodamine B assay; format: functional, cell-based
SF-539 [5] = assay: Growth inhibition of human SF-539 cells at 10 uM measured after 48 hrs by sulforhodamine B assay; format: functional, cell-based
NCI/ADR-RES [6] = assay: Growth inhibition of human NCI-ADR-RES cells at 10 uM measured after 48 hrs by sulforhodamine B assay; format: functional, cell-based
Sus scrofa [7] = species on record: Sus scrofa; assay: Inhibition of porcine brain tubulin polymerization assessed as microtubule destabilization at 10 uM measured at 60 secs interval for 60 mins in presence of GTP by fluorescence assay
COLO 205 [8] = assay: Growth inhibition of human COLO 205 cells measured after 48 hrs by sulforhodamine B assay; format: functional; settings: for CC50: read-out: LC50 (the source's name)
MDA-MB-435 [9] = assay: Growth inhibition of human MDA-MB-435 cells measured after 48 hrs by sulforhodamine B assay; format: functional; settings: for CC50: read-out: LC50 (the source's name)
SK-MEL-5 [10] = assay: Growth inhibition of human SK-MEL-5 cells measured after 48 hrs by sulforhodamine B assay; format: functional; settings: for CC50: read-out: LC50 (the source's name)
UACC-62 [11] = assay: Growth inhibition of human UACC-62 cells measured after 48 hrs by sulforhodamine B assay; format: functional; settings: for CC50: read-out: LC50 (the source's name)
OVCAR-8 [12] = assay: Growth inhibition of human OVCAR-8 cells measured after 48 hrs by sulforhodamine B assay; format: functional; settings: for CC50: read-out: LC50 (the source's name)
MCF7 [13] = assay: Growth inhibition of human MCF7 cells measured after 48 hrs by sulforhodamine B assay; format: functional
K562 [14] = assay: Growth inhibition of human K562 cells measured after 48 hrs by sulforhodamine B assay; format: functional; settings: for CC50: read-out: LC50 (the source's name)
COLO 205 [15] = assay: Growth inhibition of human COLO 205 cells at 10 uM measured after 48 hrs by sulforhodamine B assay; format: functional, cell-based
MDA-MB-435 [16] = assay: Growth inhibition of human MDA-MB-435 cells at 10 uM measured after 48 hrs by sulforhodamine B assay; format: functional, cell-based
SK-MEL-5 [17] = assay: Growth inhibition of human SK-MEL-5 cells at 10 uM measured after 48 hrs by sulforhodamine B assay; format: functional, cell-based
UACC-62 [18] = assay: Growth inhibition of human UACC-62 cells at 10 uM measured after 48 hrs by sulforhodamine B assay; format: functional, cell-based
OVCAR-8 [19] = assay: Growth inhibition of human OVCAR-8 cells at 10 uM measured after 48 hrs by sulforhodamine B assay; format: functional, cell-based
MCF7 [20] = assay: Growth inhibition of human MCF7 cells at 10 uM measured after 48 hrs by sulforhodamine B assay; format: functional, cell-based
K562 [21] = assay: Growth inhibition of human K562 cells at 10 uM measured after 48 hrs by sulforhodamine B assay; format: functional, cell-based
MDA-MB-231 [22] = assay: Cell cycle arrest in human MDA-MB-231 cells assessed as accumulation of cells at G0/G1 phase at 10 uM measured after 24 hrs by Muse cell analyzer based assay (reference value: 59.7%); format: functional
MDA-MB-231 [23] = assay: Cell cycle arrest in human MDA-MB-231 cells assessed as accumulation of cells at S phase at 10 uM measured after 24 hrs by Muse cell analyzer based assay (reference value: 12.9%); format: functional
MDA-MB-231 [24] = assay: Cell cycle arrest in human MDA-MB-231 cells assessed as accumulation of cells at G2/M phase at 10 uM measured after 24 hrs by Muse cell analyzer based assay (reference value: 27.3%); format: functional
MDA-MB-231 [25] = assay: Induction of morphological changes in human MDA-MB-231 cells assessed as loss of cell polarity at 10 uM measured after 24 hrs; format: functional, cell-based
MDA-MB-231 [26] = assay: Induction of apoptosis in human MDA-MB-231 cells assessed as viable cells at 10 uM measured after 24 hrs by Annexin V/7-AAD double staining based muse cell analyzer method (reference value: 96.21%); format: functional; settings: read-out: Activity
MDA-MB-231 [27] = assay: Induction of apoptosis in human MDA-MB-231 cells assessed as early apoptotic cells at 10 uM measured after 24 hrs by Annexin V/7-AAD double staining based muse cell analyzer method (reference value: 1.64%); format: functional
MDA-MB-231 [28] = assay: Induction of apoptosis in human MDA-MB-231 cells assessed as late apoptotic cells at 10 uM measured after 24 hrs by Annexin V/7-AAD double staining based muse cell analyzer method (reference value: 1.44%); format: functional
MDA-MB-231 [29] = assay: Induction of apoptosis in human MDA-MB-231 cells assessed as necrotic cells at 10 uM measured after 24 hrs by Annexin V/7-AAD double staining based muse cell analyzer method (reference value: 0.72%); format: functional
[30] = Cytotoxicity against human HaCaT cells assessed as reduction in cell viability measured after 48 hrs by MTT assay; format: toxicity, cell-based
MDA-MB-231 [31] = assay: Cytotoxicity against human MDA-MB-231 cells assessed as reduction in cell viability measured after 48 hrs by MTT assay; format: functional, cell-based; settings: MDA-MB-231, 48 h
Sus scrofa [32] = species on record: Sus scrofa; assay: Inhibition of porcine brain tubulin polymerization assessed as microtubule destabilization by measuring relative fluorescence unit at 10 uM measured at 60 secs interval for 60 mins in presence of GTP by fluorescence assay
SF-295 [33] = assay: Growth inhibition of human SF-295 cells measured after 48 hrs by sulforhodamine B assay; format: functional; settings: read-out: LC50 (the source's name)
SF-295 [34] = assay: Growth inhibition of human SF-295 cells at 10 uM measured after 48 hrs by sulforhodamine B assay; format: functional, cell-based

SMILES	GI50 (NCI-H522 [1]) [nM]	CC50 (NCI-H522 [1]) [nM]	growth inhibition (GI) (NCI-H522 [4])	GI50 (COLO 205 [8]) [nM]	CC50 (COLO 205 [8]) [nM]	GI50 (MDA-MB-435 [9]) [nM]	CC50 (MDA-MB-435 [9]) [nM]	GI50 (SK-MEL-5 [10]) [nM]	CC50 (SK-MEL-5 [10]) [nM]	GI50 (UACC-62 [11]) [nM]	CC50 (UACC-62 [11]) [nM]	GI50 (OVCAR-8 [12]) [nM]	CC50 (OVCAR-8 [12]) [nM]	GI50 (MCF7 [13]) [nM]	LC50 (MCF7 [13]) [nM]	GI50 (K562 [14]) [nM]	growth inhibition (GI) (COLO 205 [15])	growth inhibition (GI) (MDA-MB-435 [16])	growth inhibition (GI) (SK-MEL-5 [17])	RFU (Sus scrofa [32]) [a.u.]	further results
O=C(N/N=C/c1ccc(Cl)s1)c1[nH]c2ccc(Br)cc2c1-c1ccccc1	< 100	> 10000	Active																		GI50 (SF-539 [2]): < 100 nM; CC50 (SF-539 [2]): > 10000 nM; GI50 (NCI/ADR-RES [3]): < 100 nM; CC50 (NCI/ADR-RES [3]): > 10000 nM; growth inhibition (GI) (SF-539 [5]): Active; growth inhibition (GI) (NCI/ADR-RES [6]): Active
N#Cc1ccc(/C=N/NC(=O)c2[nH]c3ccc(Br)cc3c2-c2ccccc2)o1	82.6	> 100000	Active	198	692	186	> 100000	231	> 100000	462	> 100000	209	> 100000	324	> 100000	69	Active	Active	Active		inhibition (Sus scrofa [7]): inactive; CC50 (K562 [14]): > 100000 nM; growth inhibition (GI) (UACC-62 [18]): Active; growth inhibition (GI) (OVCAR-8 [19]): Active; growth inhibition (GI) (MCF7 [20]): Active; growth inhibition (GI) (K562 [21]): Active
COc1csc(/C=N/NC(=O)c2[nH]c3ccc(Br)cc3c2-c2ccccc2)c1	< 10	> 100000	Active	19.1	70.8	19.1	259	18.6	74.9								Active	Active	Active		inhibition (Sus scrofa [7]): inactive; Activity (MDA-MB-231 [22]): 15.6%; Activity (MDA-MB-231 [23]): 10%; Activity (MDA-MB-231 [24]): 74.5%; Activity (MDA-MB-231 [25]): Active; viability at 10 µM (MDA-MB-231 [26]): 66.7%; Activity (MDA-MB-231 [27]): 6.44%; Activity (MDA-MB-231 [28]): 20.25%; Activity (MDA-MB-231 [29]): 6.61%; IC50 at 48 h [30]: 30 nM; IC50 (MDA-MB-231 [31]): 160 nM
O=C(N/N=C/c1ccc(Br)s1)c1[nH]c2ccc(Br)cc2c1-c1ccccc1	< 100	> 10000	Active																		GI50 (SF-539 [2]): < 100 nM; CC50 (SF-539 [2]): > 10000 nM; GI50 (NCI/ADR-RES [3]): < 100 nM; CC50 (NCI/ADR-RES [3]): > 10000 nM; growth inhibition (GI) (SF-539 [5]): Active; growth inhibition (GI) (NCI/ADR-RES [6]): Active
O=C(N/N=C/c1ccc([N+](=O)[O-])o1)c1[nH]c2ccc(Br)cc2c1-c1ccccc1	37.4	5390	Active	233	1790	80.8	734	213	2620	73.1	5290	184	4190	44.3	> 100000	54	Active	Active	Active	45	CC50 (K562 [14]): > 100000 nM; growth inhibition (GI) (UACC-62 [18]): Active; growth inhibition (GI) (OVCAR-8 [19]): Active; growth inhibition (GI) (MCF7 [20]): Active; growth inhibition (GI) (K562 [21]): Active
O=C(N/N=C/c1ccc(-c2ccc(O)cc2)o1)c1[nH]c2ccc(Br)cc2c1-c1ccccc1					7210				4140								Active		Active	45	CC50 (SF-295 [33]): 8090 nM; growth inhibition (GI) (SF-295 [34]): Active
O=C(N/N=C/c1ccco1)c1[nH]c2ccc(Br)cc2c1-c1ccccc1	23.9	> 100000	Active	113	> 100000	34	> 100000	88.7	> 100000	39.4	> 100000	121	> 100000	41.4	> 100000	40.7	Active	Active	Active	50	CC50 (K562 [14]): > 100000 nM; growth inhibition (GI) (UACC-62 [18]): Active; growth inhibition (GI) (OVCAR-8 [19]): Active; growth inhibition (GI) (MCF7 [20]): Active; growth inhibition (GI) (K562 [21]): Active
COc1ccc(/C=N/NC(=O)c2[nH]c3ccc(Br)cc3c2-c2ccccc2)s1	19.3	> 100000	Active	191	719	25.3	> 100000	52.3	> 100000								Active	Active	Active	45	inhibition (Sus scrofa [7]): inactive; Activity (MDA-MB-231 [22]): 17.9%; Activity (MDA-MB-231 [23]): 11.2%; Activity (MDA-MB-231 [24]): 70.7%; Activity (MDA-MB-231 [25]): Active; viability at 10 µM (MDA-MB-231 [26]): 85.2%; Activity (MDA-MB-231 [27]): 3.48%; Activity (MDA-MB-231 [28]): 6.21%; Activity (MDA-MB-231 [29]): 5.13%; IC50 at 48 h [30]: 340 nM; IC50 (MDA-MB-231 [31]): 560 nM
COc1ccsc1/C=N/NC(=O)c1[nH]c2ccc(Br)cc2c1-c1ccccc1	213	8560	Active	435	5920	240	> 100000	321	> 100000								Active	Active	Active	20	Activity (MDA-MB-231 [22]): 19.6%; Activity (MDA-MB-231 [23]): 10.2%; Activity (MDA-MB-231 [24]): 70%; Activity (MDA-MB-231 [25]): Active; viability at 10 µM (MDA-MB-231 [26]): 85.8%; Activity (MDA-MB-231 [27]): 3.55%; Activity (MDA-MB-231 [28]): 5.7%; Activity (MDA-MB-231 [29]): 4.98%; IC50 at 48 h [30]: 540 nM; IC50 (MDA-MB-231 [31]): 4130 nM
COc1ccc(/C=N/NC(=O)c2[nH]c3ccc(Br)cc3c2-c2ccccc2)o1	18.4	> 100000	Active	187	659	77.5	747	139	> 100000	53.5	> 100000	84.5	> 100000	34.9	> 100000	47	Active	Active	Active		CC50 (K562 [14]): > 100000 nM; growth inhibition (GI) (UACC-62 [18]): Active; growth inhibition (GI) (OVCAR-8 [19]): Active; growth inhibition (GI) (MCF7 [20]): Active; growth inhibition (GI) (K562 [21]): Active
